Reference: PubChem BioAssay (NCI)
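1) Cells in 96-well plates. 2) Compound, 48 h, 5 concentrations. 3) Linear interpolation between surrounding doses. 4) Unreached endpoint = highest concentration. TGI: total growth inhibition.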

Experiments:
Test in all cases: inhibition of tumour cell growth, NCI panel, 48 h
SR leukemia = test system: SR leukemia
MDA-MB-435 = test system: MDA-MB-435
MOLT-4 leukemia = test system: MOLT-4 leukemia
HT29 colon = test system: HT29 colon
LOX IMVI melanoma = test system: LOX IMVI melanoma
NCI-H522 lung = test system: NCI-H522 lung
MDA-N = test system: MDA-N
OVCAR-8 ovarian = test system: OVCAR-8 ovarian
NCI-H460 lung = test system: NCI-H460 lung
HOP-62 NSCLC = test system: HOP-62 NSCLC
DU-145 prostate = test system: DU-145 prostate
SW-620 colon = test system: SW-620 colon
OVCAR-3 ovarian = test system: OVCAR-3 ovarian
A549 NSCLC = test system: A549 NSCLC
OVCAR-5 ovarian = test system: OVCAR-5 ovarian
SF-295 CNS = test system: SF-295 CNS
MALME-3M melanoma = test system: MALME-3M melanoma

| SMILES | TGI (SR leukemia) [µM] | TGI (MDA-MB-435) [µM] | TGI (MOLT-4 leukemia) [µM] | TGI (HT29 colon) [µM] | TGI (LOX IMVI melanoma) [µM] | TGI (NCI-H522 lung) [µM] | TGI (MDA-N) [µM] | TGI (OVCAR-8 ovarian) [µM] | TGI (NCI-H460 lung) [µM] | TGI (HOP-62 NSCLC) [µM] | TGI (DU-145 prostate) [µM] | TGI (SW-620 colon) [µM] | TGI (OVCAR-3 ovarian) [µM] | TGI (A549 NSCLC) [µM] | TGI (OVCAR-5 ovarian) [µM] | TGI (SF-295 CNS) [µM] | TGI (MALME-3M melanoma) [µM] |
| --- | --- | --- | --- | --- | --- | --- | --- | --- | --- | --- | --- | --- | --- | --- | --- | --- | --- |
| O=C(O)CO[C@@]12C#C/C=C\C#C[C@@H]3N(C(=O)Oc4ccccc4)c4ccccc4[C@]14O[C@@]34CCC2 | > 100 | 6.29 | > 100 | > 100 | > 100 | 85.9 | 34.5 | > 100 | > 100 | > 100 | > 100 | > 100 | > 100 | > 100 | – | – | – |
| O=C(/C=C/c1ccc(O)c(O)c1)OCC(OC(=O)/C=C/c1ccc(O)c(O)c1)C(=O)O (centres undefined) | > 100 | > 100 | > 100 | > 100 | > 100 | > 100 | > 100 | > 100 | > 100 | > 100 | > 100 | > 100 | > 100 | > 100 | > 100 | > 100 | – |
| CC1C2CC(C(S(=O)(=O)O)C2=O)C1(C)C (centres undefined) | > 100 | > 100 | > 100 | > 100 | – | > 100 | > 100 | > 100 | > 100 | > 100 | > 100 | > 100 | > 100 | – | > 100 | > 100 | > 100 |
| CCOC(=O)c1sc(=S)n(-c2ccc(Cl)cc2)c1-n1cc(-c2ccccc2)c(C#N)c1N | 46.7 | > 100 | > 100 | > 100 | > 100 | 14.5 | > 100 | 27.1 | > 100 | 14.7 | 21.2 | > 100 | 32.6 | 42.4 | > 100 | 33.6 | – |
| CC(C)NC(=O)OCc1c2c(n(C)c1COC(=O)NC(C)C)-c1cc(Cl)c(Cl)cc1CC2 | > 100 | > 100 | 60.3 | > 100 | > 100 | – | > 100 | > 100 | > 100 | > 100 | > 100 | > 100 | 82.8 | > 100 | > 100 | > 100 | > 100 |
| CNC1(c2cc3ccccc3s2)CCCCC1 | 67.3 | 36.6 | > 100 | 67.8 | 40.9 | 29.1 | 39.9 | > 100 | 35.4 | > 100 | > 100 | > 100 | > 100 | > 100 | 95.7 | > 100 | – |
| O=C(NC1=C(Cl)C(=O)c2ccccc2C1=O)c1ccccc1 | > 100 | 47.6 | 58.8 | 66.1 | – | 52.3 | 28.1 | > 100 | > 100 | > 100 | > 100 | 33.4 | 42.7 | > 100 | > 100 | > 100 | 31.3 |
| OC(CC1CCCCN1)c1ccc2c(c1)oc1ccccc12 (centres undefined) | > 100 | > 100 | 67.1 | > 100 | > 100 | > 100 | > 100 | > 100 | > 100 | > 100 | > 100 | > 100 | > 100 | > 100 | > 100 | > 100 | > 100 |
| C=CCn1c(N)c(C#N)c(C#N)c1CCC | > 100 | > 100 | > 100 | > 100 | > 100 | > 100 | > 100 | > 100 | – | > 100 | > 100 | > 100 | > 100 | > 100 | > 100 | > 100 | > 100 |
| COC(=O)[C@@H]1C=C[C@H](OC2OC(COC(C)=O)C(OC(C)=O)C(OC(C)=O)C2OC(C)=O)n2c(=O)n(-c3ccccc3)c(=O)n21 (some centres undefined) | > 24.9 | 11.9 | 5.19 | 3.64 | 3.09 | 1.07 | 7.41 | 8.03 | 35.8 | 28.1 | 15.7 | 3.41 | 3.24 | 30.8 | 12.6 | 15.5 | 4.07 |
| COc1cc2c(cc1OCCCCCCCCCCN1C(=O)c3cccc4cccc(c34)C1=O)N=C[C@@H]1CCCN1C2=O | 3.84 | 18.8 | 5.76 | 29.3 | 4.99 | 28.9 | 30 | 24.7 | 78 | > 100 | 34.4 | 19 | 20.3 | 82.4 | 61.2 | 27.4 | 34 |
| Cc1n(CC(C)C)c2c([n+]1C)C(=O)c1ccccc1C2=O | 11.5 | 0.277 | 0.955 | 1.03 | 0.867 | 0.0386 | 0.314 | 0.937 | 1.26 | 0.76 | 0.41 | 1.4 | 0.0961 | 1.34 | 0.824 | 1.65 | 0.28 |
| COc1ccc(CC2COc3cc(OC)cc(OC)c3C2=O)cc1 (centres undefined) | 43.2 | 18.1 | > 100 | 40.4 | > 100 | 87 | > 100 | 83.3 | > 100 | 97.1 | 77.2 | > 100 | 46.5 | > 100 | 76.4 | 48.3 | 75.3 |
| Cc1ccc(C(=O)N/N=C(\N=Nc2cccc([N+](=O)[O-])c2)c2ccc(N(CCC#N)CCC#N)cc2C)cc1 | > 100 | 54.3 | > 82.6 | > 100 | > 100 | > 100 | > 78.4 | > 91.6 | > 100 | 79.7 | > 100 | > 100 | 6.71 | > 100 | > 100 | > 92 | 18.4 |
| COc1ccc(/C=C2\N=C(N3CCCCC3)NC2=O)cc1 | > 100 | > 100 | > 100 | > 100 | > 100 | > 100 | > 100 | > 100 | – | > 100 | > 100 | > 100 | > 100 | > 100 | > 100 | > 100 | > 100 |
| CC1(C)N/C(=C\[N+](=O)[O-])C(C)(C)N1O | > 10 | > 10 | > 10 | > 10 | > 10 | > 10 | > 10 | > 10 | > 10 | > 10 | > 10 | > 10 | > 10 | > 10 | > 10 | > 10 | > 10 |
| COC(=O)C1=C(OC(=O)/C(=C/c2ccccc2)c2ccc(Cl)cc2Cl)C(C(=O)OC)[C@@]2(O)[C@@H](C(=O)OC)[C@H](C)C[C@@H]1[C@@H]2C(=O)OC (some centres undefined) | > 100 | > 100 | > 100 | > 100 | > 100 | > 100 | > 100 | > 100 | > 100 | > 100 | > 100 | > 100 | > 100 | > 100 | > 100 | > 100 | > 100 |
| CSc1c(C(=O)Nc2ccccc2)c(N)n(N)c(=O)c1C#N | > 100 | > 100 | > 100 | > 100 | > 100 | > 100 | > 100 | > 100 | > 100 | – | > 100 | > 100 | > 100 | > 100 | > 100 | – | > 100 |
| COC1(OC)N=C(N)C2(C#N)C(c3ccccc3)NC3=C(CCC3)C12C#N (centres undefined) | > 100 | > 100 | > 100 | > 100 | > 100 | > 100 | > 100 | > 100 | > 100 | > 100 | > 100 | > 100 | – | > 100 | > 100 | > 100 | > 100 |
| S=C(N/N=C/c1ccccn1)N1CCCCC1 | 0.217 | > 100 | – | > 100 | 20.8 | 25.7 | > 100 | > 65.6 | 0.457 | – | > 100 | > 100 | 26.4 | > 100 | > 100 | > 100 | 7.57 |
| O=C1C2=Cc3ccccc3OC2(O)Oc2cc3ccccc3cc21 (centres undefined) | > 100 | > 100 | > 100 | > 100 | > 100 | – | > 100 | > 100 | > 100 | > 100 | > 100 | > 100 | > 100 | > 100 | > 100 | > 100 | > 100 |
| O=C1/C(=C\c2ccc([N+](=O)[O-])cc2)N(S(=O)(=O)c2ccccc2)c2ncccc21 | 20.8 | 47.2 | 13.5 | 35 | 47.5 | 54.4 | 45.3 | 70.2 | 38.3 | 46.2 | 75.4 | 34.2 | 31.3 | > 100 | – | 75.4 | 33 |
| Cc1ccc(C2(O)CSC(=NC34CC5CC(CC(C5)C3)C4)N2C(P(=O)(O)O)P(=O)(O)O)cc1 (centres undefined) | > 100 | > 100 | > 100 | > 100 | – | – | > 100 | > 100 | > 100 | > 100 | > 100 | > 100 | > 100 | > 100 | > 100 | > 100 | > 100 |
| CC(C)(C)C1CCC(=O)/C(=C/CC2CC(=O)N(c3ccccc3)C(=O)C2)C1 (centres undefined) | 41.5 | 64.8 | 75.2 | 43.6 | 29.7 | 39.2 | 66.9 | 39.8 | 30.2 | 72.8 | 40 | 53.5 | 47.7 | – | 41.6 | > 100 | 36.7 |
| O=c1oc2ccccc2c(Nc2ccc3c(c2)Sc2ccccc2O3)c1[N+](=O)[O-] | 57.3 | > 100 | – | 65.9 | > 100 | 48 | > 100 | > 100 | 55.3 | > 100 | > 100 | – | 47.5 | > 100 | > 100 | 60.6 | 65.7 |
| CN(/N=C/c1ccc(C(=O)O)cc1)C1=NCCCCN1 | > 100 | > 100 | > 100 | > 100 | > 100 | > 100 | > 100 | > 100 | > 100 | > 100 | > 100 | – | > 100 | > 100 | > 100 | > 100 | > 100 |
| N[C@@H]1CCN(c2c(F)cc3c(=O)c(C(=O)O)cn4c3c2Oc2c-4ccc3c2ccc2ccccc23)C1 | > 100 | > 100 | > 100 | > 100 | > 100 | > 100 | > 100 | > 100 | 2.91 | > 100 | > 100 | > 100 | > 100 | > 100 | > 100 | > 100 | – |
| Cc1nc2ccc(Br)cc2c(=O)n1-c1nnc(C(C)(C)C)s1 | > 10 | > 10 | > 10 | > 10 | > 10 | > 10 | > 10 | > 10 | > 10 | > 10 | > 10 | > 10 | > 10 | > 10 | > 10 | > 10 | – |
